In patent publication US20150086719A1, “USE OF […] MARINE WOODBORERS” (Janssen Pharmaceutica, NV, priority 2012, published 2015):

What was measured:
[1] = system: Limnoria lignorum; assay: Marine field test according to EN 275: rating of attack on tralopyril impregnated Scots pine sapwood by Limnoria l.; type: in vivo; set-up: key to Rating of attack by Limnoria l. 1st year / Rating of attack by Limnoria l. 2nd year: 0: No destruction No visible tunnel or destruction by marine organisms; Little destruction Tunnels are one or a few number and up to cover 15% of total sample area; Moderate destruction Tunnels cover between 15-25% of total sample area; 3: Violent destruction Tunnels cover between 25-50% of total sample area; 4: Fully destruction Tunnels covered more than 50% of total sample area; —: some samples were destroyed the second year (indicated by ‘-’ in Table 1); details: for Rating of attack by Limnoria l. 1st year, average / Rating of attack by Limnoria l. 2nd year, average: average of samples, scale 0-4; for Rating of attack by Limnoria l. 1st year, average / Rating of attack by Limnoria l. 1st year: 1 year in seawater; for Rating of attack by Limnoria l. 2nd year, average / Rating of attack by Limnoria l. 2nd year: 2 years in seawater; for Rating of attack by Limnoria l. 1st year / Rating of attack by Limnoria l. 2nd year: single wood samples
Experimental: (§1) The effectiveness to reduce the presence of marine woodborers in wood situated in a marine environment was determined using the guidelines and recommendations in EN 275: 1992—wood preservatives—determination of the protective effectiveness against marine woodborers.
(§2) Wood Material The wood material used for both control groups (untreated) and test groups was Scots pine sapwood (Pinus sylvestris L.). The size of the wood samples was 25×70×200 mm and all pine specimens were pure sapwood and free from defects.
Full cell Impregnation Procedure: • place specimens into a treatments vessel (e.g. an exsiccator) • pull vacuum until 7 hPa is reached and hold said vacuum for 15 minutes • flood specimens under vacuum with treatment solution until the specimens are completely immersed • release vacuum and make sure that samples stay completely immersed while ambient pressure presses treatment solution into the specimens • leave specimens for further 2 hours immersed in the treatment solution • subsequently remove the specimens from the treatment solution, drain drip off solution for some minutes and place the specimens container on inert supports. • keep specimens in the closed container for 3 days (over weekend) for fixation, subsequently open the lid every day a bit more and remove it completely after 4 days • dry specimens in the open container at room temperature further 3 days
1a) Water Dilutable Formulation (Emulsifiable Concentrate)
Tralopyril dissolved in methanol (1600 ppm and 400 ppm).
1a) water dilutable formulation : 228 g and 846 g a.i./ m^3
1b) solvent based formulation : 1087 g a.i./ m^3
Bay (Gullmar fjord) outside the Kristineberg Marine Research Station, 100 km north of Gothenburg, Sweden.
Temperature and salinity of water: Temperature varies between (18-22)° C. in the summer and −1.5° C. in mid-winter. Salinity varies between 26 g/kg and 34 g/kg. Good oxygen level due to a strong water flow.
Borer activity: there is borer activity all around the year. […] The criterion for failure due to Teredo attack (tunnels covering more than 50% of the specimen area as it appears on the X-ray film) is often fulfilled already within 6 months for untreated control specimens. Maximum “service” life of untreated controls is approximately 1.5 years, after which the samples are often broken to pieces by the autumn storms.
Specimens were hung on nylon-bars (diameter =24 mm) of two ladder-like rigs placed on the sea bottom at 6±0.4 m depth at low tide. The test rigs have heavy concrete foundations and each rig was kept upright by a 50 cm diameter buoy. As a result of the arrangement, the specimens are located at depths varying from 4 m to 6.5 m below water surface during the exposure period.
Gribbles: Limnoria lignorum (present but not very active)

[2] = system: Teredo navalis; assay: Marine field test according to EN 275: rating of attack on tralopyril impregnated Scots pine sapwood by T. navalis; type: in vivo; set-up: key: 0: No destruction No visible tunnel or destruction by marine organisms; Little destruction Tunnels are one or a few number and up to cover 15% of total sample area; Moderate destruction Tunnels cover between 15-25% of total sample area; 3: Violent destruction Tunnels cover between 25-50% of total sample area; 4: Fully destruction Tunnels covered more than 50% of total sample area; —: some samples were destroyed the second year (indicated by ‘-’ in Table 1); details: single wood samples; tralopyril retention 1087 g/m^3 (solvent based formulation, methanol); 1 year in seawater
Experimental: as §1, §2
Full cell Impregnation Procedure: • place specimens into a treatments vessel (e.g. an exsiccator) • pull vacuum until 7 hPa is reached and hold said vacuum for 15 minutes • flood specimens under vacuum with treatment solution until the specimens are completely immersed • release vacuum and make sure that samples stay completely immersed while ambient pressure presses treatment solution into the specimens • leave specimens for further 2 hours immersed in the treatment solution • subsequently remove the specimens from the treatment solution, drain drip off solution for some minutes and place the specimens container on inert supports. • keep specimens in the closed container for 3 days (over weekend) for fixation, subsequently open the lid every day a bit more and remove it completely after 4 days • dry specimens in the open container at room temperature further 3 days […]

[3] = tralopyril retention 1087 g/m^3
[4] = tralopyril retention 228 g/m^3 (water dilutable formulation)
[5] = tralopyril retention 846 g/m^3 (water dilutable formulation)
[6] = tralopyril retention 1087 g/m^3 (solvent based formulation, methanol)

SMILES: N#Cc1c(-c2ccc(Cl)cc2)[nH]c(C(F)(F)F)c1Br [tralopyril, 4-bromo-2-(4-chlorophenyl)-5-(trifluoromethyl)-1H-pyrrole-3-carbonitrile]
- Rating of attack by Limnoria l. 1st year, average ([1]; tralopyril retention 228 g/m^3): 0.0
- Rating of attack by Limnoria l. 2nd year, average ([1]; tralopyril retention 228 g/m^3): 0.0
- Rating of attack by Limnoria l. 1st year, average ([1]; tralopyril retention 846 g/m^3): 0.0
- Rating of attack by Limnoria l. 2nd year, average ([1]; tralopyril retention 846 g/m^3): 0.0
- Rating of attack by Limnoria l. 1st year, average [1, 3]: 0.0
- Rating of attack by Limnoria l. 2nd year, average [1, 3]: 0.0
- Rating of attack by Limnoria l. 1st year [1, 4]: 0
- Rating of attack by Limnoria l. 2nd year [1, 4]: 0
- Rating of attack by Limnoria l. 1st year [1, 5]: 0
- Rating of attack by Limnoria l. 2nd year [1, 5]: 0
- Rating of attack by Limnoria l. 1st year [1, 6]: 0
- Rating of attack by Limnoria l. 2nd year [1, 6]: 0
- Rating of attack by T. navalis 1st year [2]: 0
